In brackets after ≈: the same amount, converted by molar mass. Activity calls are given as the source filed them. The calls are words filed in the database; no cut-off is given here.
Assays:
Staphylococcus aureus [1] = experiment: Inhibition of ribosomal 50S subunit synthesis in methicillin-resistant Staphylococcus aureus A1024 at 8 ng/mL by [3H]uridine pulse-chase labeling method; type: functional, organism-based
Staphylococcus aureus [2] = experiment: Inhibition of ribosomal 50S subunit synthesis in wild type Staphylococcus aureus RN1786 at 8 ng/mL by [3H]uridine pulse-chase labeling method; type: functional, organism-based
Staphylococcus aureus [3] = experiment: Reduction of 23S rRNA level in wild type Staphylococcus aureus RN1786 at 10 ng/mL by agilent bioanalyzer analysis; type: functional; set-up: scale not given: the % may be the effect or the level left
Staphylococcus aureus [4] = experiment: Reduction of 23S rRNA level in wild type Staphylococcus aureus RN1786 at 20 ng/mL by agilent bioanalyzer analysis; type: functional; set-up: scale not given: the % may be the effect or the level left
Staphylococcus aureus [5] = experiment: Reduction of 23S rRNA level in methicillin-resistant Staphylococcus aureus A1024 at 10 ng/mL by agilent bioanalyzer analysis; type: functional; set-up: scale not given: the % may be the effect or the level left
Staphylococcus aureus [6] = experiment: Reduction of 23S rRNA level in methicillin-resistant Staphylococcus aureus A1024 at 20 ng/mL by agilent bioanalyzer analysis; type: functional; set-up: scale not given: the % may be the effect or the level left
Staphylococcus aureus [7] = experiment: Effect on 16S rRNA level in wild type Staphylococcus aureus RN1786 at 10 ng/mL by agilent bioanalyzer analysis; type: functional
Staphylococcus aureus [8] = experiment: Effect on 16S rRNA level in wild type Staphylococcus aureus RN1786 at 20 ng/mL by agilent bioanalyzer analysis; type: functional
Staphylococcus aureus [9] = experiment: Effect on 16S rRNA level in methicillin-resistant Staphylococcus aureus A1024 at 10 ng/mL by agilent bioanalyzer analysis; type: functional
Staphylococcus aureus [10] = experiment: Effect on 16S rRNA level in methicillin-resistant Staphylococcus aureus A1024 at 20 ng/mL by agilent bioanalyzer analysis; type: functional
Staphylococcus aureus [11] = experiment: Increase in small RNA level in wild type Staphylococcus aureus RN1786 at 10 ng/mL by agilent bioanalyzer analysis; type: functional
Staphylococcus aureus [12] = experiment: Increase in small RNA level in wild type Staphylococcus aureus RN1786 at 20 ng/mL by agilent bioanalyzer analysis; type: functional
Staphylococcus aureus [13] = experiment: Increase in small RNA level in methicillin-resistant Staphylococcus aureus A1024 at 10 ng/mL by agilent bioanalyzer analysis; type: functional
Staphylococcus aureus [14] = experiment: Increase in small RNA level in methicillin-resistant Staphylococcus aureus A1024 at 20 ng/mL by agilent bioanalyzer analysis; type: functional
Staphylococcus aureus [15] = experiment: Inhibition of total viable cell number in wild type Staphylococcus aureus RN1786; type: functional, organism-based
Staphylococcus aureus [16] = experiment: Inhibition of total viable cell number in methicillin-resistant Staphylococcus aureus A1024; type: functional, organism-based
Staphylococcus aureus [17] = experiment: Inhibition of protein synthesis in wild type Staphylococcus aureus RN1786; type: functional, organism-based
Staphylococcus aureus [18] = experiment: Inhibition of protein synthesis in methicillin-resistant Staphylococcus aureus A1024; type: functional, organism-based
Staphylococcus aureus [19] = experiment: Inhibition of ribosomal 50S subunit synthesis in wild type Staphylococcus aureus RN1786; type: functional, organism-based
Staphylococcus aureus [20] = experiment: Inhibition of ribosomal 50S subunit synthesis in methicillin-resistant Staphylococcus aureus A1024; type: functional, organism-based
Staphylococcus aureus [21] = experiment: Inhibition of ribosomal 30S subunit formation in wild type Staphylococcus aureus RN1786; type: functional, organism-based
Staphylococcus aureus [22] = experiment: Inhibition of ribosomal 30S subunit formation in methicillin-resistant Staphylococcus aureus A1024; type: functional, organism-based
Staphylococcus aureus [23] = experiment: Antibacterial activity against wild type Staphylococcus aureus RN1786; type: functional
Staphylococcus aureus [24] = experiment: Antibacterial activity against methicillin-resistant Staphylococcus aureus A1024; type: functional
Staphylococcus aureus [25] = experiment: Inhibition of ribosomal 30S subunit synthesis in methicillin-resistant Staphylococcus aureus A1024 at 8 ng/mL by [3H]uridine pulse-chase labeling method; type: functional, organism-based

C=C[C@]1(C)C[C@@H](OC(=O)CS[C@@H]2C[C@H]3CC[C@@H](C2)N3C)[C@]2(C)[C@H](C)CC[C@]3(CCC(=O)[C@H]32)[C@@H](C)[C@@H]1O [RETAPAMULIN]
Activity (Staphylococcus aureus [1]): Active | Activity (Staphylococcus aureus [2]): Active | Activity (Staphylococcus aureus [3]): 15.3% | Activity (Staphylococcus aureus [4]): 16.6% | Activity (Staphylococcus aureus [5]): 14.1% | Activity (Staphylococcus aureus [6]): 12.3% | Activity (Staphylococcus aureus [7]): 19.8% | Activity (Staphylococcus aureus [8]): 19.7% | Activity (Staphylococcus aureus [9]): 18.8% | Activity (Staphylococcus aureus [10]): 18.8% | Activity (Staphylococcus aureus [11]): 68.7% | Activity (Staphylococcus aureus [12]): 70.6% | Activity (Staphylococcus aureus [13]): 52.3% | Activity (Staphylococcus aureus [14]): 57.6% | IC50 (Staphylococcus aureus [15]): 0.012 µg/mL (≈ 0.0232 µM) | IC50 (Staphylococcus aureus [16]): 0.025 µg/mL (≈ 0.0483 µM) | IC50 (Staphylococcus aureus [17]): 5 ng/mL (≈ 0.00966 µM) | IC50 (Staphylococcus aureus [18]): 0.017 µg/mL (≈ 0.0328 µM) | IC50 (Staphylococcus aureus [19]): 0.027 µg/mL (≈ 0.0521 µM) | IC50 (Staphylococcus aureus [20]): 0.02 µg/mL (≈ 0.0386 µM) | Activity (Staphylococcus aureus [21]): inactive | Activity (Staphylococcus aureus [22]): inactive | MIC (Staphylococcus aureus [23]): 0.035 µg/mL (≈ 0.0676 µM) | MIC (Staphylococcus aureus [24]): 0.055 µg/mL (≈ 0.106 µM) | Activity (Staphylococcus aureus [25]): inactive

From ChEMBL document CHEMBL1143405, “Retapamulin inhibition of translation and 50S ribosomal subunit formation in Staphylococcus aureus cells” (Antimicrob Agents Chemother, 2007)
